Results as given in patent publication US12053451B2, “Arginase inhibitors and their therapeutic applications” (OncoArendi Therapeutics S.A., priority 2016, dated 2024).
Counter-ions that a name gives are not always drawn.

Experiments:
[1] = target: T1, recombinant human arginase 1 (Homo sapiens, UniProt P05089); experiment: Human arginase activity assay (urea measurement), arginase 1; format: biochemical; details: recombinant human arginase 1, pH 7.4, 37° C., 60 min; * = value for the most potent diastereoisomer or the mixture of diastereoisomers; read-out: Activity Class (ARG I)
T1 construct: purchased Biolegend 552502
T1 sequence (P05089 1-322): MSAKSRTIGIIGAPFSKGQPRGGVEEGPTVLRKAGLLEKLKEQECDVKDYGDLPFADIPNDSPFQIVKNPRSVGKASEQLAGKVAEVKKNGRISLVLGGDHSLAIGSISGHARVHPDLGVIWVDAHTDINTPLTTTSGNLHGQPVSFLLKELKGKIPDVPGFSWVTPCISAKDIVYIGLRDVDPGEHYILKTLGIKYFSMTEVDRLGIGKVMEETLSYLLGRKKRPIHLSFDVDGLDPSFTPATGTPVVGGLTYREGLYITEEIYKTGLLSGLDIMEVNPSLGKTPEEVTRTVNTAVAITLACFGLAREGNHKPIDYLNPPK
Experimental: (§1) Human Arginase Activity Assay
The assay was run in the 96-well plate format, each reaction in the total volume of 100 uL. The assay is based on urea measurement, which is a product of L-arginine enzymatic degradation. […] The color product is developed by adding a mixture of reagent A (4 mM oPA in 50 mM boric acid in 1M sulfuric acid, 0.03% Brij-35) and reagent B (4 mM NED in 50 mM boric acid in 1M sulfuric acid, 0.03% Brij-35) in equal proportions. The absorbance for each well was measured at 530 nm.
(§2) For positive control, only the enzyme and substrate were used, the negative controls contained substrate solution with assay buffer. After incubating the microtiter plate at 37° C. for 60 min 150 μL of mixed reagents A and B was added to each well to stop the reaction. Absorbance was measured (λ=530 nm) 20 minutes later, after color development. The urea production in the absence of any compound was considered the maximum arginase activity. The absorbance in the absence of arginase (background) was subtracted from all the values. The normalized OD was used to generate a concentration-response curve by plotting the percent of inhibition against log[concentration] of the compound and using regression analysis (GraphPad Prism 7.0) to compute the IC50 values.

[2] = target: T2, recombinant human arginase 2 (Homo sapiens, UniProt P78540); experiment: Human arginase activity assay (urea measurement), arginase 2; format: biochemical; details: for selected examples class estimated from % of inhibition at 1 μM and 100 μM, * = most potent diastereoisomer or mixture of diastereoisomers, read-out: Activity Class (ARG II)
T2 construct: made in house; host or cells: CHO
T2 sequence (P78540 23-354): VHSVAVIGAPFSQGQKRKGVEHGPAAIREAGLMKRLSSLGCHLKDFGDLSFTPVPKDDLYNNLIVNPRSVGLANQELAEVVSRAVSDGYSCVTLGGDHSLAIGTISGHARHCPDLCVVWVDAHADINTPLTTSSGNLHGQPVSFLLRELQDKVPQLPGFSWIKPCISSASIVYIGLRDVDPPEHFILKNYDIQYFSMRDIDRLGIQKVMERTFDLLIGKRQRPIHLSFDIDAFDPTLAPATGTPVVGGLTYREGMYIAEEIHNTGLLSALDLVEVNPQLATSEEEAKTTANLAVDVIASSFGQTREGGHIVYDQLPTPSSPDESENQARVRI
Experimental: as §1
An enzymatic assay with recombinant human arginases 1 (Biolegend, Cat. No. 552502) and 2 (homemade in eukaryotic expression system of CHO, purified by FPLC) was used in order to assess inhibitory activity of the compounds. The assay was run in the 96-well plate format, each reaction in the total volume of 100 uL. The assay is based on urea measurement, which is a product of L-arginine enzymatic degradation. (Baggio et al. J Pharmacol. Exp. Ther. 1999, 290, 1409-1416). The color product is developed by adding a mixture of reagent A (4 mM oPA in 50 mM boric acid in 1M sulfuric acid, 0.03% Brij-35) and reagent B (4 mM NED in 50 mM boric acid in 1M sulfuric acid, 0.03% Brij-35) in equal proportions. The absorbance for each well was measured at 530 nm.
as §2, with “Briefly, to each well of a 96-well microtiter plate 40 μL of enzyme in the reaction assay buffer (pH 7.4, 100 mM sodium phosphate buffer, 130 mM NaCl, 1 mg/mL albumin), 50 μL of the test compound solution and 10 μL of enzyme substrate solution (L-arginine hydrochloride, natural pH 5.6, final concentration 20 mM and a cofactor—manganese chloride, final concentration 150 μM) was added. For” for “For”
For selected examples the activity class for ARG2 was estimated based on % of inhibition for 1 μM and 100 μM concentration of tested compounds.

N[C@@]1(C(=O)O)C[C@H](CCB(O)O)CC[C@@H]1O (racemic) [Example 15, rac-(1S,2S,5R)-1-Amino-5-(2-boronoethyl)-2-hydroxycyclohexane-1-carboxylic acid hydrochloride]
IC50 [1]: > 100 µM
IC50 [2]: > 100 µM

NC1(C(=O)O)C[C@H](CCB(O)O)CC[C@@H]1O (mixture of isomers) [Example 16, rac-(2S,5R)-1-Amino-5-(2-boronoethyl)-2-hydroxycyclohexane-1-carboxylic acid hydrochloride]
IC50 [1]: 10 to 100 µM
IC50 [2]: 10 to 100 µM

NC[C@H]1C[C@](N)(C(=O)O)C[C@@H]1CCB(O)O (racemic) [Example 6, rac-(1S,3S,4S)-1-Amino-3-(aminomethyl)-4-(2-boronoethyl)cyclopentane-1-carboxylic acid dihydrochloride]
IC50 [1]: 1 to 10 µM
IC50 [2]: 1 to 10 µM

CN(C[C@@H]1CC[C@@H](CCB(O)O)C[C@]1(N)C(=O)O)c1ccccc1 (racemic) [Example 40, rac-(1R,2S,5R)-1-amino-5-(2-boronoethyl)-2-((methyl(phenyl)amino)methyl)cyclohexanecarboxylic acid dihydrochloride]
IC50 [1]: 1 to 10 µM
IC50 [2]: 1 to 10 µM

CN(C)C[C@@H]1CC[C@@H](CCB(O)O)C[C@@]1(N)C(=O)O (racemic) [Example 19, rac-(1S,2S,5R)-1-amino-5-(2-boronoethyl)-2-((dimethylamino)methyl)cyclohexane-1-carboxylic acid dihydrochloride]
IC50 [1]: 1 to 10 µM
IC50 [2]: 1 to 10 µM

NC1(C(=O)O)CNC(CCB(O)O)C1 (stereo not shown) [Example 9, 3-Amino-5-(2-boronoethyl)pyrrolidine-3-carboxylic acid dihydrochloride]
IC50 [1]: > 100 µM
IC50 [2]: > 100 µM

N[C@@]1(C(=O)O)C[C@H](CCB(O)O)[C@@H](O)C1 (racemic) [Example 4, rac-(1S,3S,4S)-1-Amino-3-(2-boronoethyl)-4-hydroxycyclopentane-1-carboxylic acid hydrochloride]
IC50 [1]: 10 to 100 µM
IC50 [2]: 10 to 100 µM

N[C@]1(C(=O)O)C[C@H](CCB(O)O)CC[C@H]1O (racemic) [Example 13, rac-(1R,2R,5R)-1-Amino-5-(2-boronoethyl)-2-hydroxycyclohexane-1-carboxylic acid hydrochloride]
IC50 [1]: 0.1 to 1 µM
IC50 [2]: 10 to 100 µM

N[C@]1(C(=O)O)C[C@H](CCB(O)O)[C@@H](O)C1 (racemic) [Example 5, rac-(1R,3S,4S)-1-Amino-3-(2-boronoethyl)-4-hydroxycyclopentane-1-carboxylic acid hydrochloride]
IC50 [1]: > 100 µM
IC50 [2]: > 100 µM

C[C@H]1[C@H](CCB(O)O)CCC1(N)C(=O)O (mixture of isomers) [Example 2, rac-(2S,3R)-1-amino-3-(2-boronoethyl)-2-methylcyclopentane-1-carboxylic acid]
IC50 [1]: > 100 µM
IC50 [2]: > 100 µM

CN(C)CCC1CC[C@@H](CCB(O)O)CC1(N)C(=O)O (single isomer, unassigned) [Example 47, dihydrochloride]
IC50 [1]: 0.1 to 1 µM
IC50 [2]: 0.001 to 0.1 µM

NC1(C(=O)O)CC(CCB(O)O)CCC1(O)Cc1ccc(Cl)cc1 (single isomer, unassigned) [Example 52, 1-amino-5-(2-boronoethyl)-2-(4-chlorobenzyl)-2-hydroxycyclohexanecarboxylic acid hydrochloride]
IC50 [1]: 10 to 100 µM
IC50 [2]: 10 to 100 µM

N[C@]1(C(=O)O)C[C@H](CCB(O)O)CC[C@H]1CNCC(F)(F)F (racemic) [Example 36, rac-(1R,2S,5R)-1-amino-5-(2-boronoethyl)-2-(((2,2,2-trifluoroethyl)amino)methyl)cyclohexanecarboxylic acid dihydrochloride]
IC50 [1]: > 100 µM
IC50 [2]: 0.1 to 1 µM

NC1(C(=O)O)CCCCC(CCB(O)O)C1 (stereo not shown) [Example 12, 1-Amino-3-(2-boronoethyl)cycloheptane-1-carboxylic acid hydrochloride]
IC50 [1]: > 100 µM
IC50 [2]: > 100 µM

N[C@]1(C(=O)O)CCC[C@@H](CCB(O)O)C1 (racemic) [Example 11, rac-(1R,3R)-1-Amino-3-(2-boronoethyl)cyclohexane-1-carboxylic acid hydrochloride]
IC50 [1]: 10 to 100 µM

CC1(CCB(O)O)CCC(N)(C(=O)O)C1 (racemic) [Example 3, 1-amino-3-(2-boronoethyl)-3-methylcyclopentane-1-carboxylic acid]
IC50 [1]: > 100 µM
IC50 [2]: > 100 µM

NC1(C(=O)O)CC(CCB(O)O)CCC1CCN1CCCC1 (racemic) [Example 25, 1-Amino-5-(2-boronoethyl)-2-(2-(pyrrolidin-1-yl)ethyl)cyclohexane-1-carboxylic acid dihydrochloride]
IC50 [1]: 0.001 to 0.1 µM

COc1ccc(N(C)C[C@@H]2CC[C@@H](CCB(O)O)C[C@]2(N)C(=O)O)cc1 (racemic) [Example 37, rac-(1R,2S,5R)-1-amino-5-(2-boronoethyl)-2-(((4-methoxyphenyl)(methyl)amino)methyl)cyclohexanecarboxylic acid dihydrochloride]
IC50 [1]: 1 to 10 µM
IC50 [2]: 1 to 10 µM

CN1C[C@@H](CCB(O)O)C[C@](N)(C(=O)O)C1 (racemic) [Example 59, rac-(3R,5S)-3-amino-5-(2-boronoethyl)-1-methylpiperidine-3-carboxylic acid]
IC50 [1]: 1 to 10 µM
IC50 [2]: 1 to 10 µM

NC1(C(=O)O)CC(CCB(O)O)N(Cc2ccccc2)C1 (stereo not shown) [Example 8, 3-Amino-1-benzyl-5-(2-boronoethyl)pyrrolidine-3-carboxylic acid dihydrochloride]
IC50 [1]: > 100 µM

NCC1CC(CCB(O)O)CC1(N)C(=O)O (stereo not shown) [Example 66, 1-amino-2-(aminomethyl)-4-(2-boronoethyl)cyclopentane-1-carboxylic acid dihydrochloride]
IC50 [1]: 0.1 to 1 µM

CC1=CCC(CCB(O)O)CC1(N)C(=O)O (stereo not shown) [Example 51, 1-amino-5-(2-boronoethyl)-2-methylcyclohex-2-enecarboxylic acid hydrochloride]
IC50 [1]: 0.1 to 1 µM
IC50 [2]: 1 to 10 µM

NC1(C(=O)O)CCC(CCB(O)O)C1 (racemic) [Example 1, 1-amino-3-(2-boronoethyl)cyclopentane-1-carboxylic acid]
IC50 [2]: 1 to 10 µM

CN(Cc1ccccc1)CC1CCC(CCB(O)O)CC1(N)C(=O)O (stereo not shown) [Example 21, 1-Amino-2-((benzyl(methyl)amino)methyl)-5-(2-boronoethyl)cyclohexane-1-carboxylic acid dihydrochloride]
IC50 [1]: 0.1 to 1 µM
IC50 [2]: 1 to 10 µM
